Laboratory results from patent US12193994B2, “Combination of a cell therapy and a gamma secretase inhibitor” (Juno Therapeutics, Inc., priority 2017, dated 2025).

Legend:
[1] = tested on: OPM2 or RPMI-8226 target cells; test: Cytokine production by anti-BCMA CAR-T cells co-cultured with target cells +/- LY3039478; assay type: cell-based, human; conditions: 24 hours co-culture, vs absence of LY3039478
Procedure: (§1) The production of cytokines by anti-BCMA CAR-T cells in the presence or absence of LY3039478 was assessed by monitoring cytokine levels in the supernatants of co-cultures of CAR-T cells with BCMA-expressing target cells. CAR-T cells generated as described in this Example above were cultured with either OPM2 or RPMI-8226 target cells in the absence of LY3039478 or in the presence of LY3039478 at concentrations of 0.1 nM, 1 nM, 10 nM, 100 nM, 1000 nM, 10000 nM or 100000 nM (the range covering the estimated human pharmacokinetic range is shown by the boxes in FIGS. 3A-3D). Culture supernatants were harvested after 24 hours, and IFNγ and IL-2 were measured from the culture supernatants.

[2] = tested on: OPM2 target cells; test: Similar study: concentration dependence of cytokine production by anti-BCMA CAR-T cells; assay type: cell-based; conditions: Homo sapiens, OPM-2; OPM2, one exemplary donor, IFN-gamma (FIG. 3E); read-out: increasing cytokine production by anti-BCMA CAR-T cells, IC50
Procedure: as §1
A similar study was carried out to further assess the effects of different concentrations of LY3039478, including concentrations within the estimated Cmax/Cmin for the inhibitor, on the ability of anti-BCMA CAR-T cells generated as described in this Example 2 above to produce cytokines following co-culture with OPM2 target cells.

[3] = tested on: MM1S cells; test: Serial restimulation of anti-BCMA CAR+ T cells with irradiated target cells: expansion and cytokines; assay type: cell-based, human; conditions: 0.001 μM and 1.0 μM
Description: The ability of CAR T cells to expand ex vivo following repeated rounds of antigen stimulation can correlate with in vivo function and/or capacity of the cells to persist in in vivo (e.g., following administration and initial activation in response to encounter with antigen) (Zhao et al. (2015) Cancer Cell, 28:415-28). To assess the effect of the exemplary gamma secretase inhibitor on CAR-T cell activity after serial restimulation, anti-BCMA CAR+ T cells were generated as described above in Example 2, and irradiated BCMA-expressing target cells (MM1S cells) were added at an effector-to-target (E:T) ratio of 1:2 in the presence of LY3039478 at two different concentrations, either 0.001 μM (a concentration around the IC50) or a higher concentration of 1.0 μM (approximately 3 times Cmax), or with vehicle only control. The assay was performed on a composition of anti-BCMA CAR+ T cells generated from T cells derived from a healthy donor or from a donor with multiple myeloma. Every 3-4 days, CAR-expressing T cells were harvested, counted and re-plated at the initial seeding density with fresh media containing new irradiated target cells at the same E:T ratio in the presence or absence of the same concentration of LY3039478. A total of 3-5 rounds of stimulation were carried out during a 10-14 day culture period. Effects of the inhibitor on T cell function were assessed by monitoring the cell number (FIGS. 4A and 4B) or cytokine production in harvested supernatant (FIG. 5A and FIG. 5B) at each round of stimulation.
The production of cytokines by anti-BCMA CAR-T cells upon restimulation with antigen-expressing cells in the presence or absence of LY3039478 was assessed after the first round of re-plating at day 4. Culture supernatants were harvested 24 hours after re-plating, and IFN-gamma, IL-2 and TNF-alpha were measured from the culture supernatants.

[4] = tested on: multiple myeloma tumor; test: BCMA expression on tumors after oral LY3039478 in an alternative multiple myeloma tumor cell model; assay type: in vivo, mice; conditions: 0.1 mg/kg or 1 mg/kg, two oral administrations
Procedure: Specifically, NOD.Cg.PrkdescidIL2rgtm1 Wjl/SzJ (NSG) mice were injected subcutaneously (s.c.) with 1E+07 RPMI-8226 cells modified to express GFP and firefly luciferase (RPMI-8226 ffluc) and tumors were allowed to grow. […]
FIG. 6 depicts analysis of blood samples, taken at 0, 0.5, 2, 6, 18, 24, 36, and 48 hour post-administration, for plasma levels of the drug. […] Tumor cells at 2 hours, 24 hours or 48 hours after administration of LY3039478 or vehicle control in the study were assessed for surface expression of BCMA.

[5] = tested on: RPMI-8226, OPM2, or MM1.S; test: Re-challenge of chronically stimulated anti-BCMA CAR+ T cells with target cells +/- LY3039478; assay type: cell-based, human
Procedure: The effect of a gamma secretase inhibitor compound, LY3039478, on the cytotoxicity of anti-BCMA CAR+ T cells after long-term CAR-specific stimulation was assessed. Anti-BCMA CAR+ T cell compositions, generated as described in Example 2 containing anti-BCMA CAR-expressing CD4+ and CD8+ T cells, were incubated with 50 μg/mL BCMA-Fc conjugated beads for 7 days, under conditions designed to functionally exhaust the CAR T cells.
The CAR-T cells then were re-challenged with antigen-expressing target cells in the presence or absence of LY3039478. […] To assess cytolytic activity, the target cells were labeled with NucLight Red (NLR) to permit tracking by fluorescent microscopy. Killing activity was assessed by measuring the loss of viable target cells over time, as determined by loss of fluorescent signal over time by kinetic fluorescence microscopy (using the INCUCYTE® Live Cell Analysis System, Essen Bioscience). Target fluorescence was monitored over time and was normalized to target cell count.
A killing index was determined as the inverse of the area under the curve (AUC) for target fluorescence over time, and was normalized relative to DMSO vehicle control. […]

[6] = tested on: BCMA on the surface of multiple myeloma cells; test: BCMA surface expression on multiple myeloma cells in patients given oral LY3039478; assay type: in vivo, human; conditions: mean, three 25 mg oral doses
Procedure: Three human subjects having multiple myeloma were administered three 25 mg doses of the gamma secretase inhibitor (GSI) LY3039478 by mouth. The absolute B cell maturation antigen (BCMA) antibody binding capacity (ABC) on the surface of multiple myeloma cells was quantitated by flow cytometry performed on bone marrow aspirate specimens obtained from each of the patients prior to administration of the GSI, and immediately after the third oral GSI dose. A mean 66-fold increase in BCMA ABC was observed following GSI administration (FIG. 15A).

[7] = 24 hours after re-plating at day 4, both donors

C[C@H](NC(=O)CCC(F)(F)F)C(=O)N[C@@H]1C(=O)N(CCO)c2ncccc2-c2ccccc21 [LY3039478, 4,4,4-trifluoro-N-[(1S)-2-[[(7S)-5-(2-hydroxyethyl)-6-oxo-7H-pyrido[2,3-d][3]benzazepin-7-yl]amino]-1-methyl-2-oxo-ethyl]butanamide]
production of IFN-gamma in supernatant [1]: increased | production of IL-2 in supernatant [1]: increased | IC50 [2]: 0.1 to 0.25 nM | levels of IFN-gamma [3, 7]: Increased levels | levels of IL-2 [3, 7]: Increased levels | levels of TNF-alpha [3, 7]: Increased levels | expansion of anti-BCMA CAR T cells ([3]; E:T 1:2, 10-14 days, healthy and myeloma donor): increased expansion | detrimental effects on CAR-T cell function ([3]; serial restimulation): did not exhibit any detrimental effects | BCMA expression on tumors [4]: Increased BCMA expression | function of chronically stimulated anti-BCMA CAR-expressing T cells to produce cytokines (TNF-alpha, IFN-gamma, IL-2) ([5]; 1 μM LY3039478, 24 hours, E:T 0.3:1 and 1:1): improved function | cytolytic activity of chronically stimulated anti-BCMA CAR+ T cells ([5]; 1 μM LY3039478 vs DMSO, E:T 0.3:1): improved cytolytic activity | increase in BCMA antibody binding capacity (ABC) following GSI administration ([6]; three subjects, bone marrow aspirate): 66 fold | percentage of plasma cells with measurable surface BCMA expression following the three oral doses ([6]; 35% (mean) before GSI): 98.4%
